Measurements taken from patent EP0326329B1, “Quinazoline derivatives useful as insecticides” (Dow AgroSciences LLC, priority 1988, dated 1989).

Legend:
Assay type in all cases: in vivo
[1] = system: Pyricularia oryzae (rice blast); settings: disease control rating, foliar spray, host rice; 400 ppm (+++ at 100 ppm)
[2] = system: Botrytis cinerea (gray mold); assay: Greenhouse Test 1, foliar spray fungicide screen (GRAY MOLD), host grape berries; settings: disease control rating, 400 ppm (+++ at 100 ppm)
[3] = system: Septoria tritici (leaf blotch); assay: Greenhouse Test 1, foliar spray fungicide screen (LEAF BLOT), host wheat; settings: disease control rating, 400 ppm (+++ at 100 ppm)
[4] = system: Venturia inaequalis (apple scab); assay: Greenhouse Test 1, foliar spray fungicide screen (APPL SCAB), host apple seedling; settings: disease control rating, 400 ppm (+++ at 100 ppm)
[5] = system: Puccinia recondita tritici (leaf rust); assay: Greenhouse Test 1, foliar spray fungicide screen (LEAF RUST), host wheat; settings: disease control rating, 400 ppm (+++ at 100 ppm)
[6] = system: southern armyworm (Spodopetra eridania Cramer); assay: Mite/insect screen, sprayed squash leaves (SAW); settings: Spodoptera eridania, percent mortality, read-out: SAW RESULTS %; for mortality at 200 ppm: spray rate 200 ppm; for mortality at 400 ppm: spray rate 400 ppm
Procedure, shortened: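 Percent mortality and phytotoxicity are the read-outs, assessed after standard exposure periods. Test solutions, made in 50:50 acetone/alcohol with two sulfonate/nonionic emulsifier blends and diluted in water, are sprayed to runoff on both leaf surfaces, which then dry for one hour.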

[7] = system: melon aphids (Aphis gossypii Glover); assay: Mite/insect screen, sprayed squash cotyledons (MA); settings: Aphis gossypii, percent mortality, read-out: MA RESULTS %; for mortality at 200 ppm: spray rate 200 ppm; for mortality at 400 ppm: spray rate 400 ppm
Procedure, shortened: (§1)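 Compounds dissolved in acetone/alcohol with TOXIMUL R/S emulsifiers, diluted with water to test concentrations, and sprayed to runoff on both leaf surfaces at 10 psi, then dried 1 h. Excised treated squash leaves given southern armyworm larvae; aphid and spider mite tests on sprayed squash cotyledons. Percent mortality and phytotoxicity scored after standard exposure.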

[8] = system: Twospotted spider mites (Tetranychus urticae Koch); assay: Mite/insect screen, sprayed squash cotyledons (SM); settings: Tetranychus urticae, percent mortality, read-out: SM RESULTS %; for mortality at 200 ppm: spray rate 200 ppm; for mortality at 400 ppm: spray rate 400 ppm
Procedure, shortened: as §1

[9] = system: Pseudoperonospora cubensis (downy mildew); assay: Greenhouse Test 1, foliar spray fungicide screen (DOWN MDEW), host squash; settings: disease control rating, 400 ppm (+++ at 100 ppm)
[10] = system: Southern corn rootworm (Diabrotica undecimpuctata howardi Barber); assay: Mite/insect screen, soil treatment (CRW); settings: Diabrotica, percent mortality, soil treatment, read-out: CRW RESULTS %; for mortality at 12 ppm: CRW rate 12.00 ppm; for mortality at 24 ppm: CRW rate 24.00 ppm
Procedure, shortened: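 Compounds dissolved in acetone/alcohol (50:50) with Toximul R/S emulsifiers, diluted with water. Soil (15 g, with presoaked corn seed) treated with 1 mL test solution, dried 6–12 h, then five 2–3 instar larvae added; held at 23°C. Percent mortality and phytotoxicity scored after standard exposure periods.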

[11] = system: Cercospora beticola (leaf spot); assay: Greenhouse Test 1, foliar spray fungicide screen (LEAF SPOT), host sugar beet; settings: disease control rating, 400 ppm (+++ at 100 ppm)
[12] = system: Erysiphe graminis tritici (powdery mildew); assay: Greenhouse Test 1, foliar spray fungicide screen (POWD MDEW), host wheat; settings: disease control rating, 400 ppm (+++ at 100 ppm)

Compound	RICE BLAST [1]	GRAY MOLD [2]	LEAF BLOT [3]	APPL SCAB [4]	LEAF RUST [5]	mortality at 200 ppm [6]	mortality at 400 ppm [6]	mortality at 200 ppm [7]	mortality at 400 ppm [7]	mortality at 200 ppm [8]	mortality at 400 ppm [8]	DOWN MDEW [9]	mortality at 12 ppm [10]	mortality at 24 ppm [10]	LEAF SPOT [11]	POWD MDEW [12]
CC(=O)N(CCc1ccc(-c2ccccc2)cc1)c1ncnc2ccccc12 [Example 108, N-[2-(1,1'-biphenyl)-4-ylethyl]-N-(4-quinazolinyl)acetamide]	+++ (+++ = 90-100% control at 100 ppm)	- (- = 0-19% control at 400 ppm)	+++ (+++ = 90-100% control at 100 ppm)	- (- = 0-19% control at 400 ppm)	+ (+ = 20-89% control at 400 ppm)	0%	0%	30%	20%	60%	90%	+++ (+++ = 90-100% control at 100 ppm)	0%	0%	++ (++ = 90-100% control at 400 ppm)	+ (+ = 20-89% control at 400 ppm)
CC(Cc1ccccc1)Nc1nc(NC(C)Cc2ccccc2)c2ccccc2n1 (centres unmarked) [Example 26, N,N'-bis(1-methyl-2-phenylethyl)-2,4-quinazolinediamine]	++ (++ = 90-100% control at 400 ppm)	- (- = 0-19% control at 400 ppm)	+ (+ = 20-89% control at 400 ppm)	- (- = 0-19% control at 400 ppm)	++ (++ = 90-100% control at 400 ppm)	0%		0%		0%		+++ (+++ = 90-100% control at 100 ppm)	0%		+ (+ = 20-89% control at 400 ppm)	- (- = 0-19% control at 400 ppm)
CC(CNc1nc(NCC(C)c2ccccc2)c2ccccc2n1)c1ccccc1 (centres unmarked) [Example 27, N,N'-bis(2-phenylpropyl)-2,4-quinazolinediamine]	+ (+ = 20-89% control at 400 ppm)	- (- = 0-19% control at 400 ppm)	+ (+ = 20-89% control at 400 ppm)	- (- = 0-19% control at 400 ppm)	+ (+ = 20-89% control at 400 ppm)	0%		0%		0%		+++ (+++ = 90-100% control at 100 ppm)	0%		- (- = 0-19% control at 400 ppm)	- (- = 0-19% control at 400 ppm)
c1csc(CCOc2ncnc3ccccc23)c1 [Example 54, 4-[2-(2-thienyl)ethoxy]quinazoline]	++ (++ = 90-100% control at 400 ppm)	- (- = 0-19% control at 400 ppm)	+ (+ = 20-89% control at 400 ppm)	+ (+ = 20-89% control at 400 ppm)	++ (++ = 90-100% control at 400 ppm)	0%		0%		0%		++ (++ = 90-100% control at 400 ppm)	0%		+ (+ = 20-89% control at 400 ppm)	++ (++ = 90-100% control at 400 ppm)
c1ccc(CCCNc2nc(NCCCc3ccccc3)c3ccccc3n2)cc1 [Example 24, N,N'-bis(3-phenylpropyl)-2,4-quinazolinediamine]	+ (+ = 20-89% control at 400 ppm)	- (- = 0-19% control at 400 ppm)	- (- = 0-19% control at 400 ppm)	- (- = 0-19% control at 400 ppm)	+ (+ = 20-89% control at 400 ppm)	0%		0%		0%		+++ (+++ = 90-100% control at 100 ppm)	0%		- (- = 0-19% control at 400 ppm)	+ (+ = 20-89% control at 400 ppm)
Clc1ccccc1OCCOc1ncnc2ccccc12 [Example 110, 4-[2-(2-chlorophenoxy)ethoxy]quinazoline]	+ (+ = 20-89% control at 400 ppm)	- (- = 0-19% control at 400 ppm)	- (- = 0-19% control at 400 ppm)	- (- = 0-19% control at 400 ppm)	++ (++ = 90-100% control at 400 ppm)	0%	0%	0%	0%	0%	0%	+ (+ = 20-89% control at 400 ppm)	0%	0%	- (- = 0-19% control at 400 ppm)	- (- = 0-19% control at 400 ppm)
Cc1ccc(CCOc2ncnc3ccccc23)cc1 [Example 87, 4-[2-(4-methylphenyl)ethoxy]quinazoline]	+++ (+++ = 90-100% control at 100 ppm)	- (- = 0-19% control at 400 ppm)	- (- = 0-19% control at 400 ppm)	- (- = 0-19% control at 400 ppm)	++ (++ = 90-100% control at 400 ppm)	0%	50%	100%	100%	90%	90%	+++ (+++ = 90-100% control at 100 ppm)	0%	0%	+ (+ = 20-89% control at 400 ppm)	++ (++ = 90-100% control at 400 ppm)
Fc1ccc(CCOc2ncnc3ccccc23)cc1 [Example 84, 4-[2-(4-fluorophenyl)ethoxy]quinazoline]	++ (++ = 90-100% control at 400 ppm)	- (- = 0-19% control at 400 ppm)	+ (+ = 20-89% control at 400 ppm)	++ (++ = 90-100% control at 400 ppm)	+++ (+++ = 90-100% control at 100 ppm)	0%	0%	0%	0%	0%	0%	++ (++ = 90-100% control at 400 ppm)	0%	40%	- (- = 0-19% control at 400 ppm)	++ (++ = 90-100% control at 400 ppm)
Fc1cccc2c(NCCc3ccc4ccccc4c3)ncnc12 [Example 31, 8-fluoro-N-[2-(2-naphthyl)ethyl]-4-quinazolinamine]	+++ (+++ = 90-100% control at 100 ppm)	- (- = 0-19% control at 400 ppm)	+++ (+++ = 90-100% control at 100 ppm)	- (- = 0-19% control at 400 ppm)	+++ (+++ = 90-100% control at 100 ppm)	80%	30%	40%	0%	0%	0%	++ (++ = 90-100% control at 400 ppm)	0%	0%	+ (+ = 20-89% control at 400 ppm)	+ (+ = 20-89% control at 400 ppm)
